Reference: patent US20230085307A1, “PYRIDAZINONE COMPOUND AND HERBICIDE” (NISSAN CHEMICAL CORPORATION, priority 2019, published 2023)

Tests used:
Italian ryegrass [1] = test: Test Example 4: herbicidal effect by soil treatment (Table 19, symbol K); format: in vivo, Italian ryegrass (Lolium multiflorum); settings: amount of applied herbicide 320 g/ha
Summary of the method: (§1)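 Three weeks of greenhouse growth at 25° C. to 30° C. followed a uniform surface spray of water-diluted emulsion at a predetermined herbicide amount. Seeds had been sown beforehand under about 1.5 cm of sterilized diluvial soil. Grading followed criteria set out in an earlier test.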

late watergrass [2] = test: Test Example 1: herbicidal activity, application before weed generation under submerged conditions (Table 16, symbol A); format: in vivo, late watergrass (Echinochloa oryzicola); settings: 320 g/ha applied herbicide
Summary of the method: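 Alluvial soil was flooded to 4 cm depth, weed seeds were sown mixed and 2.5-leaf rice seedlings were transplanted. On sowing day, the compound's emulsion, diluted in water to a set dose, was applied to the water surface. Plants grew at 25–30 °C and were scored 0–5 after three weeks.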

late watergrass [3] = test: Test Example 2: herbicidal activity, application during weed generation under submerged conditions (Table 17, symbol A); format: in vivo, late watergrass (Echinochloa oryzicola); settings: AAH 320 g/ha; application during weed generation, submerged conditions
Summary of the method: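 Wagner pot, alluvial soil, 4 cm flood; mixed sowing of all species; greenhouse 25° C.–30° C. Emulsifiable formulation, water-diluted to predetermined dose, applied to paddy water at 1–2 leaf stage. Effect rated at 3 wk using the earlier test's scoring criteria.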

wild oat [4] = test: Test Example 4: herbicidal effect by soil treatment (Table 19, symbol I); format: in vivo, wild oat (Avena fatua); settings: amount of applied herbicide 320 g/ha
Summary of the method: as §1

barnyard grass = test: Test Example 5: herbicidal effect by foliage application, plastic box (Table 20, symbol H); format: in vivo, barnyard grass (Echinochloa crus-galli); settings: foliage application, 320 g/ha, evaluated three weeks after application
Summary of the method: (§2)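 Plants sown in sterilized diluvial soil and grown 14 days in a greenhouse at 25° C to 30° C, then sprayed on the foliage with the compound's emulsion diluted in water to a predetermined herbicide amount. Injury to weeds and crops scored three weeks after application on a visual rating scale.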

wild oat [5] = test: Test Example 5: herbicidal effect by foliage application, plastic box (Table 20, symbol I); format: in vivo, wild oat (Avena fatua); settings: foliage application, 320 g/ha, evaluated three weeks after application
Summary of the method: as §2

windgrass = test: Test Example 4: herbicidal effect by soil treatment (Table 19, symbol L); format: in vivo, windgrass (Apera spica-venti); settings: amount of applied herbicide 320 g/ha
Summary of the method: as §1

chickweed [6] = test: Test Example 4: herbicidal effect by soil treatment (Table 19, symbol P); format: in vivo, common chickweed (Stellaria media); settings: amount of applied herbicide 320 g/ha
Summary of the method: as §1

lambsquarters [7] = test: Test Example 4: herbicidal effect by soil treatment (Table 19, symbol O); format: in vivo, lambsquarters (Chenopodium album); settings: amount of applied herbicide 320 g/ha
Summary of the method: as §1

Chinese sprangletop = test: Test Example 3: herbicidal effect by foliage application, Wagner pot (Table 18, symbol D); format: in vivo, chinese sprangletop (Leptochloa chinensis); settings: amount of applied herbicide 320 g/ha
Summary of the method: (§3)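 Plants were sown in alluvial soil held under 0.1–0.5 cm standing water and grown 14 days in a greenhouse at 25–30 °C. An emulsifiable formulation, water-diluted to the set dose, was then sprayed onto the foliage, and effects were scored three weeks later using previously defined criteria.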

rice flat sedge = test: Test Example 3: herbicidal effect by foliage application, Wagner pot (Table 18, symbol E); format: in vivo, rice flat sedge (Cyperus iria); settings: amount of applied herbicide 320 g/ha
Summary of the method: as §3

southern crabgrass = test: Test Example 4: herbicidal effect by soil treatment (Table 19, symbol F); format: in vivo, southern crabgrass (Digitaria ciliaris); settings: amount of applied herbicide 320 g/ha
Summary of the method: as §1

lambsquarters [8] = test: Test Example 5: herbicidal effect by foliage application, plastic box (Table 20, symbol O); format: in vivo, lambsquarters (Chenopodium album); settings: foliage application, 320 g/ha, evaluated three weeks after application
Summary of the method: as §2

Italian ryegrass [9] = test: Test Example 5: herbicidal effect by foliage application, plastic box (Table 20, symbol K); format: in vivo, Italian ryegrass (Lolium multiflorum); settings: foliage application, 320 g/ha, evaluated three weeks after application
Summary of the method: as §2

chickweed [10] = test: Test Example 5: herbicidal effect by foliage application, plastic box (Table 20, symbol P); format: in vivo, common chickweed (Stellaria media); settings: foliage application, 320 g/ha, evaluated three weeks after application
Summary of the method: as §2

redroot pigweed = test: Test Example 5: herbicidal effect by foliage application, plastic box (Table 20, symbol N); format: in vivo, redroot pigweed (Amaranthus retroflexus); settings: foliage application, 320 g/ha, evaluated three weeks after application
Summary of the method: as §2

CCCC(=O)Oc1c(C)nn(C)c(=O)c1-c1c(-c2ccc(OC3CC3)cc2)sc2ccc(F)cc12 [2-218]
K: Italian ryegrass, herbicidal effect rating (Italian ryegrass [1]): 4 (Herbicidal rate of 70% or more and less than 90%)
Herbicidal effect on A: late watergrass (grade 0-5) (late watergrass [2]): 5 (Herbicidal rate of 90% or more (almost completely withered))
herbicidal effect rating, A: late watergrass (late watergrass [3]): 1 (Herbicidal rate of 5% or more and less than 20%)
I: wild oat, herbicidal effect rating (wild oat [4]): 0 (Herbicidal rate of 5% or less (almost no effect))
herbicidal effect on H: barnyard grass (criteria 0-5) (barnyard grass): 4 (Herbicidal rate of 70% or more and less than 90%)
herbicidal effect on I: wild oat (criteria 0-5) (wild oat [5]): 3 (Herbicidal rate of 40% or more and less than 70%)
L: windgrass, herbicidal effect rating (windgrass): 0 (Herbicidal rate of 5% or less (almost no effect))
P: chickweed, herbicidal effect rating (chickweed [6]): 1 (Herbicidal rate of 5% or more and less than 20%)
O: lambsquarters, herbicidal effect rating (lambsquarters [7]): 4 (Herbicidal rate of 70% or more and less than 90%)
herbicidal effect on D: Chinese sprangletop (Chinese sprangletop): 3 (Herbicidal rate of 40% or more and less than 70%)
herbicidal effect on E: rice flat sedge (rice flat sedge): 5 (Herbicidal rate of 90% or more (almost completely withered))
F: southern crabgrass, herbicidal effect rating (southern crabgrass): 0 (Herbicidal rate of 5% or less (almost no effect))
herbicidal effect on O: lambsquarters (criteria 0-5) (lambsquarters [8]): 5 (Herbicidal rate of 90% or more (almost completely withered))
herbicidal effect on K: Italian ryegrass (criteria 0-5) (Italian ryegrass [9]): 4 (Herbicidal rate of 70% or more and less than 90%)
herbicidal effect on P: chickweed (criteria 0-5) (chickweed [10]): 5 (Herbicidal rate of 90% or more (almost completely withered))
herbicidal effect on N: redroot pigweed (criteria 0-5) (redroot pigweed): 2 (Herbicidal rate of 20% or more and less than 40%)

CCCC(=O)Oc1c(C)nn(C)c(=O)c1-c1c(-c2cccc(OCC(C)C)c2)sc2ccc(F)cc12 [2-222]
herbicidal effect on K: Italian ryegrass (Italian ryegrass [1]): 2 (Herbicidal rate of 20% or more and less than 40%)
Herbicidal effect on A: late watergrass (grade 0-5) (late watergrass [2]): 5 (Herbicidal rate of 90% or more (almost completely withered))
herbicidal effect rating, A: late watergrass (late watergrass [3]): 2 (Herbicidal rate of 20% or more and less than 40%)
herbicidal effect on I: wild oat (wild oat [4]): 0 (Herbicidal rate of 5% or less (almost no effect))
herbicidal effect on H: barnyard grass (criteria 0-5) (barnyard grass): 5 (Herbicidal rate of 90% or more (almost completely withered))
herbicidal effect on I: wild oat (criteria 0-5) (wild oat [5]): 3 (Herbicidal rate of 40% or more and less than 70%)
herbicidal effect on L: windgrass (windgrass): 4 (Herbicidal rate of 70% or more and less than 90%)
herbicidal effect on P: chickweed (chickweed [6]): 2 (Herbicidal rate of 20% or more and less than 40%)
herbicidal effect on O: lambsquarters (lambsquarters [7]): 4 (Herbicidal rate of 70% or more and less than 90%)
herbicidal effect on D: Chinese sprangletop (Chinese sprangletop): 5 (Herbicidal rate of 90% or more (almost completely withered))
herbicidal effect on E: rice flat sedge (rice flat sedge): 4 (Herbicidal rate of 70% or more and less than 90%)
herbicidal effect on F: southern crabgrass (southern crabgrass): 1 (Herbicidal rate of 5% or more and less than 20%)
herbicidal effect on O: lambsquarters (criteria 0-5) (lambsquarters [8]): 5 (Herbicidal rate of 90% or more (almost completely withered))
herbicidal effect on K: Italian ryegrass (criteria 0-5) (Italian ryegrass [9]): 4 (Herbicidal rate of 70% or more and less than 90%)
herbicidal effect on P: chickweed (criteria 0-5) (chickweed [10]): 5 (Herbicidal rate of 90% or more (almost completely withered))
herbicidal effect on N: redroot pigweed (criteria 0-5) (redroot pigweed): 5 (Herbicidal rate of 90% or more (almost completely withered))

CCCCCOc1cccc(-c2sc3ccc(F)cc3c2-c2c(O)c(C)nn(C)c2=O)c1 [2-225]
herbicidal effect on K: Italian ryegrass (Italian ryegrass [1]): 0 (Herbicidal rate of 5% or less (almost no effect))
Herbicidal effect on A: late watergrass (grade 0-5) (late watergrass [2]): 0 (Herbicidal rate of 5% or less (almost no effect))
herbicidal effect rating, A: late watergrass (late watergrass [3]): 3 (Herbicidal rate of 40% or more and less than 70%)
herbicidal effect on I: wild oat (wild oat [4]): 0 (Herbicidal rate of 5% or less (almost no effect))
herbicidal effect on H: barnyard grass (criteria 0-5) (barnyard grass): 3 (Herbicidal rate of 40% or more and less than 70%)
herbicidal effect on I: wild oat (criteria 0-5) (wild oat [5]): 0 (Herbicidal rate of 5% or less (almost no effect))
herbicidal effect on L: windgrass (windgrass): 0 (Herbicidal rate of 5% or less (almost no effect))
herbicidal effect on P: chickweed (chickweed [6]): 0 (Herbicidal rate of 5% or less (almost no effect))
herbicidal effect on O: lambsquarters (lambsquarters [7]): 3 (Herbicidal rate of 40% or more and less than 70%)
herbicidal effect on D: Chinese sprangletop (Chinese sprangletop): 3 (Herbicidal rate of 40% or more and less than 70%)
herbicidal effect on E: rice flat sedge (rice flat sedge): 4 (Herbicidal rate of 70% or more and less than 90%)
herbicidal effect on F: southern crabgrass (southern crabgrass): 0 (Herbicidal rate of 5% or less (almost no effect))
herbicidal effect on O: lambsquarters (criteria 0-5) (lambsquarters [8]): 4 (Herbicidal rate of 70% or more and less than 90%)
herbicidal effect on K: Italian ryegrass (criteria 0-5) (Italian ryegrass [9]): 0 (Herbicidal rate of 5% or less (almost no effect))
herbicidal effect on P: chickweed (criteria 0-5) (chickweed [10]): 5 (Herbicidal rate of 90% or more (almost completely withered))
herbicidal effect on N: redroot pigweed (criteria 0-5) (redroot pigweed): 5 (Herbicidal rate of 90% or more (almost completely withered))

Cc1nn(C)c(=O)c(-c2c(-c3ccc(C(F)F)cc3)sc3ccc(F)cc23)c1O [2-227]
herbicidal effect on K: Italian ryegrass (Italian ryegrass [1]): 4 (Herbicidal rate of 70% or more and less than 90%)
Herbicidal effect on A: late watergrass (grade 0-5) (late watergrass [2]): 3 (Herbicidal rate of 40% or more and less than 70%)
herbicidal effect rating, A: late watergrass (late watergrass [3]): 0 (Herbicidal rate of 5% or less (almost no effect))
herbicidal effect on I: wild oat (wild oat [4]): 0 (Herbicidal rate of 5% or less (almost no effect))
herbicidal effect on H: barnyard grass (criteria 0-5) (barnyard grass): 5 (Herbicidal rate of 90% or more (almost completely withered))
herbicidal effect on I: wild oat (criteria 0-5) (wild oat [5]): 0 (Herbicidal rate of 5% or less (almost no effect))
herbicidal effect on L: windgrass (windgrass): 0 (Herbicidal rate of 5% or less (almost no effect))
herbicidal effect on P: chickweed (chickweed [6]): 5 (Herbicidal rate of 90% or more (almost completely withered))
herbicidal effect on O: lambsquarters (lambsquarters [7]): 5 (Herbicidal rate of 90% or more (almost completely withered))
herbicidal effect on D: Chinese sprangletop (Chinese sprangletop): 3 (Herbicidal rate of 40% or more and less than 70%)
herbicidal effect on E: rice flat sedge (rice flat sedge): 5 (Herbicidal rate of 90% or more (almost completely withered))
herbicidal effect on F: southern crabgrass (southern crabgrass): 5 (Herbicidal rate of 90% or more (almost completely withered))
herbicidal effect on O: lambsquarters (criteria 0-5) (lambsquarters [8]): 5 (Herbicidal rate of 90% or more (almost completely withered))
herbicidal effect on K: Italian ryegrass (criteria 0-5) (Italian ryegrass [9]): 4 (Herbicidal rate of 70% or more and less than 90%)
herbicidal effect on P: chickweed (criteria 0-5) (chickweed [10]): 5 (Herbicidal rate of 90% or more (almost completely withered))
herbicidal effect on N: redroot pigweed (criteria 0-5) (redroot pigweed): 5 (Herbicidal rate of 90% or more (almost completely withered))
